Laboratory results from the NIST ThermoML archive (doi:10.1016/j.tca.2015.06.017).

Assay: xn = mol fraction of the nth substance listed
Details: Liquid, Vibrating tube method

CCCCCl [1-chlorobutane] + CCCCCCC
mass density [kg/m3]
Details	303.15 K	313.15 K	323.15 K
100 kPa, x2 = 0.0508	860.95	849.81	838.56
100 kPa, x2 = 0.0994	847.86	836.88	825.81
100 kPa, x2 = 0.2013	822	811.33	800.61
100 kPa, x2 = 0.3015	798.55	788.17	777.72
100 kPa, x2 = 0.4008	777.02	766.92	756.76
100 kPa, x2 = 0.5026	756.58	746.79	736.89
100 kPa, x2 = 0.6012	738.17	728.67	719.03
100 kPa, x2 = 0.7003	720.97	711.73	702.32
100 kPa, x2 = 0.7995	704.97	695.88	686.71
100 kPa, x2 = 0.9011	689.64	680.8	671.83
100 kPa, x2 = 0.9494	682.71	673.98	665.13
2000 kPa, x2 = 0.0508	863.1	852.16	840.94
2000 kPa, x2 = 0.0994	849.99	839.22	828.16
2000 kPa, x2 = 0.2013	824.16	813.71	802.98
2000 kPa, x2 = 0.3015	800.7	790.49	780.1
2000 kPa, x2 = 0.4008	779.13	769.27	759.09
2000 kPa, x2 = 0.5026	758.72	749.1	739.17
2000 kPa, x2 = 0.6012	740.28	730.92	721.27
2000 kPa, x2 = 0.7003	723.08	713.94	704.55
2000 kPa, x2 = 0.7995	707.04	698.12	688.99
2000 kPa, x2 = 0.9011	691.71	683.02	674.07
2000 kPa, x2 = 0.9494	684.78	676.19	667.35
5000 kPa, x2 = 0.0508	866.34	855.66	844.77
5000 kPa, x2 = 0.0994	853.23	842.7	831.99
5000 kPa, x2 = 0.2013	827.36	817.15	806.76
5000 kPa, x2 = 0.3015	803.89	793.89	783.86
5000 kPa, x2 = 0.4008	782.29	772.63	762.86
5000 kPa, x2 = 0.5026	761.81	752.4	742.92
5000 kPa, x2 = 0.6012	743.41	734.17	724.95
5000 kPa, x2 = 0.7003	726.22	717.17	708.22
5000 kPa, x2 = 0.7995	710.1	701.32	692.58
5000 kPa, x2 = 0.9011	694.74	686.16	677.65
5000 kPa, x2 = 0.9494	687.8	679.3	670.89
7000 kPa, x2 = 0.0508	868.42	857.83	847.24
7000 kPa, x2 = 0.0994	855.3	844.87	834.44
7000 kPa, x2 = 0.2013	829.43	819.33	809.21
7000 kPa, x2 = 0.3015	805.92	796.12	786.24
7000 kPa, x2 = 0.4008	784.34	774.82	765.22
7000 kPa, x2 = 0.5026	763.83	754.59	745.31
7000 kPa, x2 = 0.6012	745.42	736.35	727.32
7000 kPa, x2 = 0.7003	728.16	719.35	710.53
7000 kPa, x2 = 0.7995	712.06	703.48	694.9
7000 kPa, x2 = 0.9011	696.65	688.32	679.93
7000 kPa, x2 = 0.9494	689.71	681.45	673.17
10000 kPa, x2 = 0.0508	871.51	861.16	850.72
10000 kPa, x2 = 0.0994	858.41	848.2	837.9
10000 kPa, x2 = 0.2013	832.51	822.59	812.61
10000 kPa, x2 = 0.3015	808.97	799.33	789.63
10000 kPa, x2 = 0.4008	787.38	777.95	768.57
10000 kPa, x2 = 0.5026	766.86	757.71	748.59
10000 kPa, x2 = 0.6012	748.41	739.49	730.62
10000 kPa, x2 = 0.7003	731.09	722.43	713.78
10000 kPa, x2 = 0.7995	714.97	706.51	698.05
10000 kPa, x2 = 0.9011	699.57	691.27	683.06
10000 kPa, x2 = 0.9494	692.59	684.4	676.28
20000 kPa, x2 = 0.0508	881.1	871.22	861.47
20000 kPa, x2 = 0.0994	867.95	858.21	848.64
20000 kPa, x2 = 0.2013	841.94	832.53	823.24
20000 kPa, x2 = 0.3015	818.31	809.13	800.16
20000 kPa, x2 = 0.4008	796.57	787.71	779.03
20000 kPa, x2 = 0.5026	775.93	767.37	758.92
20000 kPa, x2 = 0.6012	757.4	749.02	740.82
20000 kPa, x2 = 0.7003	740.01	731.86	723.85
20000 kPa, x2 = 0.7995	723.78	715.81	708.08
20000 kPa, x2 = 0.9011	708.24	700.5	692.95
20000 kPa, x2 = 0.9494	701.2	693.56	686.11
30000 kPa, x2 = 0.0508	889.77	880.41	871.14
30000 kPa, x2 = 0.0994	876.56	867.36	858.24
30000 kPa, x2 = 0.2013	850.48	841.53	832.76
30000 kPa, x2 = 0.3015	826.73	818.07	809.58
30000 kPa, x2 = 0.4008	804.94	796.54	788.23
30000 kPa, x2 = 0.5026	784.21	776	767.99
30000 kPa, x2 = 0.6012	765.55	757.6	749.78
30000 kPa, x2 = 0.7003	748.07	740.3	732.75
30000 kPa, x2 = 0.7995	731.77	724.2	716.78
30000 kPa, x2 = 0.9011	716.14	708.75	701.56
30000 kPa, x2 = 0.9494	709.05	701.75	694.65
40000 kPa, x2 = 0.0508	897.85	888.86	880.1
40000 kPa, x2 = 0.0994	884.61	875.75	867.14
40000 kPa, x2 = 0.2013	858.37	849.87	841.52
40000 kPa, x2 = 0.3015	834.56	826.26	818.18
40000 kPa, x2 = 0.4008	812.66	804.63	796.79
40000 kPa, x2 = 0.5026	791.81	783.99	776.38
40000 kPa, x2 = 0.6012	773.04	765.46	758.03
40000 kPa, x2 = 0.7003	755.46	748.11	740.88
40000 kPa, x2 = 0.7995	739	731.87	724.82
40000 kPa, x2 = 0.9011	723.24	716.29	709.43
40000 kPa, x2 = 0.9494	716.11	709.25	702.46
50000 kPa, x2 = 0.0508	905.34	896.61	888.16
50000 kPa, x2 = 0.0994	892.06	883.49	875.18
50000 kPa, x2 = 0.2013	865.75	857.51	849.47
50000 kPa, x2 = 0.3015	841.81	833.86	826.06
50000 kPa, x2 = 0.4008	819.81	812.1	804.52
50000 kPa, x2 = 0.5026	798.87	791.37	784.01
50000 kPa, x2 = 0.6012	780.02	772.75	765.61
50000 kPa, x2 = 0.7003	762.36	755.31	748.29
50000 kPa, x2 = 0.7995	745.84	738.98	732.14
50000 kPa, x2 = 0.9011	729.99	723.31	716.65
50000 kPa, x2 = 0.9494	722.81	716.21	709.64
60000 kPa, x2 = 0.0508	912.31	903.88	895.85
60000 kPa, x2 = 0.0994	899.01	890.72	882.82
60000 kPa, x2 = 0.2013	872.64	864.67	856.99
60000 kPa, x2 = 0.3015	848.6	840.92	833.5
60000 kPa, x2 = 0.4008	826.55	819.09	811.83
60000 kPa, x2 = 0.5026	805.54	798.31	791.24
60000 kPa, x2 = 0.6012	786.57	779.58	772.72
60000 kPa, x2 = 0.7003	768.84	762	755.34
60000 kPa, x2 = 0.7995	752.23	745.59	739.04
60000 kPa, x2 = 0.9011	736.26	729.82	723.43
60000 kPa, x2 = 0.9494	729.04	722.67	716.36
65000 kPa, x2 = 0.0508	915.61	907.45	899.38
65000 kPa, x2 = 0.0994	902.28	894.26	886.34
65000 kPa, x2 = 0.2013	875.88	868.13	860.51
65000 kPa, x2 = 0.3015	851.83	844.29	836.96
65000 kPa, x2 = 0.4008	829.71	822.37	815.25
65000 kPa, x2 = 0.5026	808.61	801.56	794.63
65000 kPa, x2 = 0.6012	789.63	782.77	776.07
65000 kPa, x2 = 0.7003	771.84	765.13	758.61
65000 kPa, x2 = 0.7995	755.19	748.66	742.31
65000 kPa, x2 = 0.9011	739.21	732.82	726.65
65000 kPa, x2 = 0.9494	731.94	725.63	719.56
